Results taken from patent US20100210697A1, “PHARMACEUTICAL COMPOSITION FOR TREATMENT OF CATARACT” (R-TECH UENO, LTD., priority 2007, published 2010).

Columns and labels:
STZ induced diabetic rat = test: Cataract onset in STZ induced diabetic rats, repeated instillation into both eyes; type: in vivo, Rats (Crj: Wistar); settings: for number of onset eyes / onset of cataract (conclusion in words): Day 46; for number of onset eyes / onset rate (Day 46): instilled 10 μL per eye, 3 times a day, test substance 1 0.01 wt %, test substance 2 2 wt %; for number of onset eyes: onset eyes/total eyes; for onset of cataract (conclusion in words): STZ induced diabetic rats, instillation; for onset rate (Day 46): saline pathology group 100%
Procedure: Rats (Crj: Wistar, male, 5-week-old) were purchased, grouped after acclimation for 6 days, and fasted for 20 hr.
After the fasting, Streptosotocin (hereinafter STZ, 50 mg/kg (2 mL/kg)) was administered to the tail vein.
After 24 hr from the STZ administration, the blood glucose level was measured, and the rats with blood glucose level of not less than 250 mg/dL were considered as STZ induced diabetic rat (measurement tool: ACCU-CHEK Aviva, Roche Diagnostics K.K.) (group 2-group 4).
From the next day of the blood glucose level measurement, saline, test substance 1 and test substance 2 were repetitively instilled to groups 2-4 into both eyes (10 μL for each eye) 3 times a day (9:00, 13:00, 17:00). The cataract suppression rate of the test substance at the time point when the onset of the pathology model group 2 reached 100% (Day 46) was determined. Saline was repetitively instilled in the same manner to the group free of streptosotocin administration (group 1).
In addition, the day when the nuclear part of the crystalline lens became obviously opaque was taken as the cataract onset day.
cataract onset rate: (number of cataract onset eyes/total number of eyes ×100)

[1] = test system: rats given powder feed with 30% of galactose; test: Cataract onset in rats fed 30% galactose feed, repeated oral administration; type: in vivo, Rats (Crj: Wistar)
Text: Rats (Crj: Wistar, male, 3-week-old) were purchased and, from the next day (Day 0), a mixture of a powder feed (CRF-1, Oriental Yeast Co., ltd.) and 30% of galactose (special grade, Wako Pure Chemical Industries, Ltd., Lot# 075-00035) was freely given. From Day 0, test substance 1 was repetitively administered orally.
dissolution liquid: 0.5% methylcellulose solution test substance 1: N-{4-[2-(4-hydrazinocarbonylmethylphenyl)ethyl]-1,3-thiazol-2-yl}acetamide (compound described in Production Example)

| Structure (SMILES) | number of onset eyes (STZ induced diabetic rat) | onset of cataract (conclusion in words) (STZ induced diabetic rat) | onset rate (Day 46) (STZ induced diabetic rat) | number of onset eyes (Day 20) ([1]; Day 20, oral, 0.5 wt %, 2 mL/kg once per day, vehicle group 8/12 eyes) | onset of cataract (conclusion in words) ([1]; galactose-fed rats, oral administration, 20 days) |
| --- | --- | --- | --- | --- | --- |
| CC(=O)Nc1nc(CCc2ccc(CC(=O)NN)cc2)cs1 [test substance 1, N-{4-[2-(4-hydrazinocarbonylmethylphenyl)ethyl]-1,3-thiazol-2-yl}acetamide] | 2/8 | suppress the onset of cataract | 25% | 3/12 eyes | suppresses the onset of cataract |
| CC(=O)Nc1nc(CCc2ccc(CCNC(=N)N)cc2)cs1 [test substance 2, N-(4-{2-[4-(2-{[amino(imino)methyl]amino}ethyl)phenyl]ethyl}-1,3-thiazol-2-yl)acetamide] | 2/10 | suppress the onset of cataract | 20% | – | – |
